Measurements: PubChem BioAssay AID1549 (Sanford-Burnham Center for Chemical Genomics, 2009)
Activity calls are given as the source filed them. No rule for the calls is given here.

The molecules below were run against Influenza A virus M2 proton channel (A/TW/4845/1999 H1N1) (assay: NMR binding screen, influenza A virus M2 proton channel, Kd (AID 1549)). Conditions: M2 protein.

Compound | Kd
O=C(O)c1ccc(NCc2cccnc2)cc1 | > 4 mM (inactive)
Nc1ccc(Oc2ccccc2)nc1 | > 4 mM (inactive)
O=C(NC1CSCC1O)c1ccccc1 (centres undefined) | > 4 mM (inactive)
O=C(O)c1ccc2nccnc2c1 | > 4 mM (inactive)
O=C1C2CC=C(Cl)CC2C(=O)N1c1ccccc1O (centres undefined) | > 4 mM (inactive)
COc1c2ccoc2nc2c(OC)c(OCC(O)C(C)(C)O)ccc12 (centres undefined) | > 4 mM (inactive)
NC(=S)CN1CCCC1=O | > 4 mM (inactive)
O=C(O)c1ccc2c(c1)OCCCO2 | > 4 mM (inactive)
Nc1nsc(-c2ccccc2)n1 | > 4 mM (inactive)
CCCCCCCCCCCCCCCCCCOCC(O)CO (centres undefined) | > 4 mM (inactive)
COC(=O)c1cccc(N)c1 | > 4 mM (inactive)
NN1C(=O)/C(=C/c2ccc(O)c(O)c2)SC1=S | > 4 mM (inactive)
O=C(Nc1ccccc1CO)c1ccccc1F | > 4 mM (inactive)
O=C(O)c1cc(=O)c2cccc(O)c2[nH]1 | > 4 mM (inactive)
Nc1cccc(S(=O)(=O)N2CCCCC2)c1 | > 4 mM (inactive)
O=C(NC1CCS(=O)(=O)C1)c1ccccc1 (centres undefined) | > 4 mM (inactive)
OCc1ccncc1 | > 4 mM (inactive)
c1cncc(Cn2cccc2)c1 | > 4 mM (inactive)
c1ccc(CCc2nc(-c3cccnc3)no2)cc1 | > 4 mM (inactive)
CC(=O)O[C@@H]1CC2C(C)(C)C(=O)C3OC3[C@]2(C)C2CC[C@@]3(C)[C@H](c4ccoc4)OC(=O)C4OC43[C@@]21C (some centres undefined) | > 4 mM (inactive)
Cc1nn(CC(=O)Nc2ccccn2)c(=O)c2ccccc12 | > 4 mM (inactive)
CC(C1OC(C)(C)C(O)C1O)[C@@H]1CC[C@]2(C)C3=CCC4C(C)(C)C(=O)CC[C@]4(C)C3CC[C@@]12C (some centres undefined) | > 4 mM (inactive)
Cn1c(=O)[nH]c(=O)c2nsnc21 | > 4 mM (inactive)
CSc1nc2nc(C)cc(=O)n2[nH]1 | > 4 mM (inactive)

Compound | Kd
Fc1ccc(Br)cc1/C=N/n1cnnc1 | > 4 mM (inactive)
c1nnc2c3c4c(sc3ncn12)CCCC4 | > 4 mM (inactive)
O=C(CSc1ncn[nH]1)c1ccc2c(c1)OCO2 | > 4 mM (inactive)
Nc1nc2c3ccccc3nc(Cc3ccccc3)n2n1 | > 4 mM (inactive)
O=C(O)c1ccc(CSc2ncn[nH]2)cc1 | > 4 mM (inactive)
COc1ccc(-c2ccc(OC)cc2C(=O)O)cc1 | > 4 mM (inactive)
Nc1nncn1C(=O)c1c(Cl)cccc1Cl | > 4 mM (inactive)
Cc1nnc(NCc2ccc3c(c2)OCO3)[nH]c1=O | > 4 mM (inactive)
O=C(O)CCN1CCOCC1 | > 4 mM (inactive)
Nc1ccc(S(=O)(=O)N2CCOCC2)cc1 | > 4 mM (inactive)
CC(=O)O[C@H]1CC[C@@]2(C)C(CC[C@]3(C)C2C(=O)C=C2C4[C@@H](C)[C@H](C)CC[C@]4(C(=O)O)CC[C@]23C)C1(C)C (some centres undefined) | > 4 mM (inactive)
Cn1c(=O)c2[nH]cnc2n(C)c1=O | > 4 mM (inactive)
CCN1C(=O)c2c(C)nc3ccccc3c2C1=O | > 4 mM (inactive)
Oc1ccc(/C=C/c2cc(O)cc(O)c2)cc1 | > 4 mM (inactive)
CC(=O)c1c(C)nn(CC(=O)O)c1C | > 4 mM (inactive)
Nc1nc2ccc(N3CCOCC3)cc2s1 | > 4 mM (inactive)
CC1(C)CC2(CCO1)NCCN1C(=O)CSC12 (centres undefined) | > 4 mM (inactive)
O=c1c2ccccc2nc2n1CCCCN2 | > 4 mM (inactive)
O=C(CC1NCCNC1=O)Nc1ccccc1 (centres undefined) | > 4 mM (inactive)
COc1ccc2[nH]cc(CN(C)C)c2c1 | > 4 mM (inactive)
O=C(O)c1ccc(-n2ccnc2)cc1 | > 4 mM (inactive)
CCOC(=O)c1c(C)cc(O)c(C)c1O | > 4 mM (inactive)
O=C(O)C(Cc1cnc[nH]1)N1C(=O)c2ccccc2C1=O (centres undefined) | > 4 mM (inactive)
O=C(O)C12CC3CC(CC(O)(C3)C1)C2 | > 4 mM (inactive)

Compound | Kd
NC1CN2CCC1CC2 (centres undefined) | > 4 mM (inactive)
c1ccc(CCN2CCN(CCc3ccccn3)CC2)nc1 | > 4 mM (inactive)
O=C1CSC(=Nc2ccc(F)cc2)N1 | > 4 mM (inactive)
O=C(O)c1cncc(-c2cccs2)c1 | > 4 mM (inactive)
C=CCCCCCCCCCCCC(O)CC(O)COC(C)=O (centres undefined) (tested in a mixture with another compound) | > 4 mM (inactive)
COC(=O)c1ccccc1N(C)S(C)(=O)=O | > 4 mM (inactive)
[O-][n+]1onc2c1CCc1c-2nc(-c2ccccc2)n1O | > 4 mM (inactive)
S=C(Nc1ccc2nccnc2c1)N1CCOCC1 | > 4 mM (inactive)
Cc1csc2nc(=O)c3ccccc3n12 | > 4 mM (inactive)
CNS(=O)(=O)c1ccc2[nH]c(=O)[nH]c2c1 | > 4 mM (inactive)
O=C(CC1SC(=O)NC1=O)Nc1ccccc1 (centres undefined) | > 4 mM (inactive)
O=C(Nc1ncccn1)c1cccc(F)c1 | > 4 mM (inactive)
C=C[C@](C)(O)CCC=C(C)C | > 4 mM (inactive)
Cc1nnc(Nc2cccnc2)[nH]c1=O | > 4 mM (inactive)
Cc1cc(=O)[nH]c(NCC(=O)O)n1 | > 4 mM (inactive)
COc1cc(O)c(C(=O)c2ccccc2)cc1O | > 4 mM (inactive)
O=C(NCc1ccccc1F)c1cccs1 | > 4 mM (inactive)
C=CCn1c(=S)[nH]c2ccc(Br)cc2c1=O | > 4 mM (inactive)
O=C1CS/C(=N/S(=O)(=O)c2ccccc2)N1 | > 4 mM (inactive)
Oc1cc(O)c2c(c1)O[C@H](c1ccc(O)c(O)c1)[C@H](O)C2 | > 4 mM (inactive)
C[C@H](CCC(=O)O)[C@H]1CCC2C3C(CC[C@@]21C)[C@@]1(C)CC[C@@H](O)C[C@H]1C[C@H]3O (some centres undefined) | > 4 mM (inactive)
CCC(C)C(NC)C(=O)O (centres undefined) | > 4 mM (inactive)
CN(C)C(=O)Nc1ccc(F)cc1F | > 4 mM (inactive)
Cc1cc(C)nc(/N=C(/N)N2CCC(C(N)=O)CC2)n1 | > 4 mM (inactive)

Compound | Kd
Cc1ccc(C)n1/N=C1\NC(=O)CS1 | > 4 mM (inactive)
O/N=C1/CCCc2nonc21 | > 4 mM (inactive)
CCCN1CCC(N2CCC(O)CC2)CC1 | > 4 mM (inactive)
O=C(O)c1ccc2sccc2c1 | > 4 mM (inactive)
COc1ccc(S(=O)(=O)N2CCC(C(N)=O)CC2)cc1 | > 4 mM (inactive)
NS(=O)(=O)c1ccc(NC(=O)C(F)(F)F)cc1 | > 4 mM (inactive)
Cc1noc(C)c1C(=O)N1CCC2(CC1)OCCO2 | > 4 mM (inactive)
O=C(O)CCCNC(=O)c1ccccc1C(=O)O | > 4 mM (inactive)
O=C(O)c1cccc2c1OCCO2 | > 4 mM (inactive)
Cc1cc(C(=O)N2CCN(c3ccccn3)CC2)c(C)o1 | > 4 mM (inactive)
C/C=C(/C)C(=O)O[C@@H]1[C@H](OC(C)=O)[C@@]2(CO)C(CC1(C)C)C1=CCC3[C@@]4(C)CC[C@H](O[C@@H]5O[C@H](C(=O)O)[C@@H](O[C@@H]6O[C@H](CO)[C@@H](O)[C@H](O)[C@H]6O)[C@H](O)[C@H]5O[C@@H]5O[C@H](CO)[C@@H](O)[C@H](O)[C@H]5O)[C@](C)(CO)C4CC[C@@]3(C)[C@]1(C)C[C@H]2O (some centres undefined) | > 4 mM (inactive)
NC(=O)CCn1ncc2ccccc21 | > 4 mM (inactive)
NC(=O)C1CCN(S(=O)(=O)c2ccccc2)CC1 | > 4 mM (inactive)
Cc1nc(SCC#N)c2c3c(sc2n1)CCC3 | > 4 mM (inactive)
N#Cc1cnn(-c2ccc(Cl)cc2)c1N | > 4 mM (inactive)
Cc1ccc(OCC(=O)n2cnnc2N)c(C)c1 | > 4 mM (inactive)
CS(=O)(=O)Nc1ccccc1C(=O)c1ccccc1 | > 4 mM (inactive)
CCN1CCC(NC2CCCCNC2=O)CC1 (centres undefined) | > 4 mM (inactive)
CS(=O)(=O)c1ccc(N)cc1 | > 4 mM (inactive)
C[C@@H]1C(=O)OC2[C@H](O)C34[C@@H]5OC(=O)[C@@]3(O[C@@H]3OC(=O)[C@H](O)[C@@]34[C@H](C(C)(C)C)[C@H]5O)[C@]21O (some centres undefined) | > 4 mM (inactive)
Cc1cc(C)nc(/N=C(/N)N2CCN(C)CC2)n1 | > 4 mM (inactive)
CC(C)[C@@H]1CC[C@@H](C)CC1=O | > 4 mM (inactive)
Cc1sc2nc3n(c(=O)c2c1C)CCCS3 | > 4 mM (inactive)
Cc1nnsc1C(=O)N(C)c1ccccc1 | > 4 mM (inactive)

Compound | Kd
CC1=C(C(N)=O)C(c2cccs2)C(C(N)=O)=C(C)N1 | > 4 mM (inactive)
CN1C2CCC1CC(OC(=O)C(CO)c1ccccc1)C2 (centres undefined) | > 4 mM (inactive)
O=C(Nc1ccc(O)cc1)N1CCOCC1 | > 4 mM (inactive)
OC1CCN(C(=S)NC2CC2)CC1 | > 4 mM (inactive)
COCC(=O)/C=C1\Sc2ccccc2N1C | > 4 mM (inactive)
O=c1n(-c2ccccc2)c(=O)n2n1CCCC2 | > 4 mM (inactive)
OC1CCC(C(F)(F)F)CC1 (centres undefined) | > 4 mM (inactive)
Cn1c(=O)n(C)c2cc(C(N)=O)ccc21 | > 4 mM (inactive)
COC(=O)CCC(C)C1CCC2C3CCC4C[C@H](O)CC[C@]4(C)C3C[C@H](O)[C@]12C (some centres undefined) | > 4 mM (inactive)
O=C(CN1C(=O)CCC1=O)c1ccccc1 | > 4 mM (inactive)
CC(=O)Nc1ccc(S(=O)(=O)Nc2cc(C)on2)cc1 | > 4 mM (inactive)
O=S(=O)(O)c1nc2ccccc2[nH]1 | > 4 mM (inactive)
COC(=O)c1c(C)cc(OC)cc1O | > 4 mM (inactive)
C/C(N)=C/C(=O)N1CCCCC1 | > 4 mM (inactive)
CSc1ccccc1NC(=O)c1ccncc1 | > 4 mM (inactive)
O=C(Nc1cccc2cccnc12)c1cccnc1 | > 4 mM (inactive)
Brc1cccc(-c2nnco2)c1 | > 4 mM (inactive)
CCOC(=O)Cc1cc(=O)n2[nH]c(C)cc2n1 | > 4 mM (inactive)
O=C(O)CNC(=O)c1ccccc1 | > 4 mM (inactive)
O=C1CN(C(=O)c2ccccc2F)c2ccccc2N1 | > 4 mM (inactive)
c1coc(CNc2nc(-c3ccncc3)cs2)c1 | > 4 mM (inactive)
Cc1nn(C)c(C)c1C(=O)O | > 4 mM (inactive)
CCCNC(=O)c1cnc2n(c1=O)CCS2 | > 4 mM (inactive)
